Experimental data from ChEMBL document CHEMBL4602676, “Discovery and Development of 3-(6-Chloropyridine-3-yloxymethyl)-2-azabicyclo[3.1.0]hexane Hydrochloride (SUVN-911): A Novel, Potent, Selective, and Orally Active Neuronal Nicotinic Acetylcholine α4β2 Receptor Antagonist for the Treatment of Depression” (J Med Chem, 2020).
pIC50, pKi: −log10 of the molar value.

Experiments:
[1] = target: Neuronal acetylcholine receptor; alpha4/beta2 (Homo sapiens, UniProt P17787+P43681); test: Displacement of [3H]cytisine from human alpha4beta2 nAChR expressed in CHOK1 cell membrane by microbeta scintillation counting method; format: cell membranes, CHO-K1
Sequence of Neuronal acetylcholine receptor; alpha4/beta2 (P17787 whole entry): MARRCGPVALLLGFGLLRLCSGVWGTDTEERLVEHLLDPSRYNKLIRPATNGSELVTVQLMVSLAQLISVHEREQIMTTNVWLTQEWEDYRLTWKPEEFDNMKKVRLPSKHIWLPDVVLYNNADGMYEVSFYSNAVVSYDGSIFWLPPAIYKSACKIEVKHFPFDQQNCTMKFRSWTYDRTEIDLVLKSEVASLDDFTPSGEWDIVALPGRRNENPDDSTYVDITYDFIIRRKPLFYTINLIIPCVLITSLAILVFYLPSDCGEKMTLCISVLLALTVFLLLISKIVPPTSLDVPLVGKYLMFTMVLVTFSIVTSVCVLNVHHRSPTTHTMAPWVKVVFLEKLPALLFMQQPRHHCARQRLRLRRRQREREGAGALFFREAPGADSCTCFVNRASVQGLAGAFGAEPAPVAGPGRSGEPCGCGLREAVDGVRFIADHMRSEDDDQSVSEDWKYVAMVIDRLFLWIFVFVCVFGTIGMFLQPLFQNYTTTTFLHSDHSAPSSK
Sequence of Neuronal acetylcholine receptor; alpha4/beta2 (P43681 whole entry): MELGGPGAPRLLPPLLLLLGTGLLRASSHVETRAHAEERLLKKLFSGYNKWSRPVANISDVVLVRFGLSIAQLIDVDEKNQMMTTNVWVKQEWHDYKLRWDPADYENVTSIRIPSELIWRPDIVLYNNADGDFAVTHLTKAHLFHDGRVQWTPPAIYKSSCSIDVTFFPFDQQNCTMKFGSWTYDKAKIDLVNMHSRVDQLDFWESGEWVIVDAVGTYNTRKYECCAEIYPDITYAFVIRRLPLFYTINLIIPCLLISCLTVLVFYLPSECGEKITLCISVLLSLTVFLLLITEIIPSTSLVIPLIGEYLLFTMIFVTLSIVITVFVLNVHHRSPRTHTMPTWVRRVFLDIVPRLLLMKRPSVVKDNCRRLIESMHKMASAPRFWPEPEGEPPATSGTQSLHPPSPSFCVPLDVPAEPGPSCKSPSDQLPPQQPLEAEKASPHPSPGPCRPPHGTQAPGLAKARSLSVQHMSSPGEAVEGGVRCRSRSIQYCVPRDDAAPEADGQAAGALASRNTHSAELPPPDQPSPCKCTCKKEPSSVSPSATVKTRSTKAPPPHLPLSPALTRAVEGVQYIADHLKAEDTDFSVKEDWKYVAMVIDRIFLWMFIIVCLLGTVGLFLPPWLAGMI

[2] = Metabolic stability in human liver microsomes assessed as compound metabolism incubated for 30 mins in presence of NADPH by LC-MS/MS analysis; format: ADME, Microsome; settings: read-out: Drug metabolism
[3] = target: Neuronal acetylcholine receptor; alpha3/beta4 (Homo sapiens, UniProt P30926+P32297); test: Displacement of [3H]epibatidine from human alpha3beta4 nAChR expressed in IMR32 cell membrane by microbeta scintillation counting method; format: cell membranes, IMR-32
Sequence of Neuronal acetylcholine receptor; alpha3/beta4 (P30926 whole entry): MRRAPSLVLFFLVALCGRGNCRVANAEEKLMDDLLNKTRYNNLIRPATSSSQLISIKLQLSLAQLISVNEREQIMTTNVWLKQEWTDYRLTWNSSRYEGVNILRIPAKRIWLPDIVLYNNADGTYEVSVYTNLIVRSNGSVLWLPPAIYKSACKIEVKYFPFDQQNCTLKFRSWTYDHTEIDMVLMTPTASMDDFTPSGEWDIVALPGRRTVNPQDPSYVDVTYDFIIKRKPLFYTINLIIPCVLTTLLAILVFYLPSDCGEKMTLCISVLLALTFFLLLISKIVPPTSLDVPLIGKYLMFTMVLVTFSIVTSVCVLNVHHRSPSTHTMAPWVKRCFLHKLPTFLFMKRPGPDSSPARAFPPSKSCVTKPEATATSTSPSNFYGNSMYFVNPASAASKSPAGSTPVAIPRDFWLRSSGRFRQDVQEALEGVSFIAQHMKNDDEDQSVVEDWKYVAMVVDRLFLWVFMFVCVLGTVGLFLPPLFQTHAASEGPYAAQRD
Sequence of Neuronal acetylcholine receptor; alpha3/beta4 (P32297 whole entry): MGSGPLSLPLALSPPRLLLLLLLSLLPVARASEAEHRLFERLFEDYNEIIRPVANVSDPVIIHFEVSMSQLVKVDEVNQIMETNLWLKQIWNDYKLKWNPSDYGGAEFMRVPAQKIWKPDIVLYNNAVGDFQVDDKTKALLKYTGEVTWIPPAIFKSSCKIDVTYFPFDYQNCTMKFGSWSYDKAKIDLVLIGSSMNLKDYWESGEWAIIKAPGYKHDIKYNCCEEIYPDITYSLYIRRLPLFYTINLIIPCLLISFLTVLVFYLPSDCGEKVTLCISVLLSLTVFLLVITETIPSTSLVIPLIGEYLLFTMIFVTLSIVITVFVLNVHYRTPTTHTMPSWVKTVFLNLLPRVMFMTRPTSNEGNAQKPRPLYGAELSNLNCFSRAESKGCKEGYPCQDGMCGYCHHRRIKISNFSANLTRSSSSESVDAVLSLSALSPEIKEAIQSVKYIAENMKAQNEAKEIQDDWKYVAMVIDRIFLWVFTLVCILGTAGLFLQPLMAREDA

Cytochrome P450 2D6 = Cytochrome P450 2D6 (Homo sapiens, UniProt P10635); test: Inhibition of CYP2D6 in human liver microsomes using dextromethorphan as substrate incubated for 12 min in presence of NADPH by LC-MS/MS analysis; format: ADME
Sequence of Cytochrome P450 2D6 (P10635 whole entry): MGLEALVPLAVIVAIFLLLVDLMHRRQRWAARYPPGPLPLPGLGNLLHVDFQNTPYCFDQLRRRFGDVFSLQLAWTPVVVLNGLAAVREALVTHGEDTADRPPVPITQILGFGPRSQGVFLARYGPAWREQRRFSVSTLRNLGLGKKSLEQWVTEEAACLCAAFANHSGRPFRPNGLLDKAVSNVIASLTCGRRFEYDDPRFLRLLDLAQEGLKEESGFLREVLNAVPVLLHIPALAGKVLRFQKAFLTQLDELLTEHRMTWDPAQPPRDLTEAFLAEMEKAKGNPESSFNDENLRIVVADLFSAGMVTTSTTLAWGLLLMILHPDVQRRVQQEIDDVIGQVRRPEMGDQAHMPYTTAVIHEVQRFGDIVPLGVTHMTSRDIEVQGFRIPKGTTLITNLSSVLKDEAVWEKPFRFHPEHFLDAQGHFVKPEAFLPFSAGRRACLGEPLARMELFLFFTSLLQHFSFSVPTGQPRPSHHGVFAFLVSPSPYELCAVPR

Cytochrome P450 3A4 = Cytochrome P450 3A4 (Homo sapiens, UniProt P08684); test: Inhibition of CYP3A4 in human liver microsomes using midazolam as substrate incubated for 2 min in presence of NADPH by LC-MS/MS analysis; format: ADME
Sequence of Cytochrome P450 3A4 (P08684 whole entry): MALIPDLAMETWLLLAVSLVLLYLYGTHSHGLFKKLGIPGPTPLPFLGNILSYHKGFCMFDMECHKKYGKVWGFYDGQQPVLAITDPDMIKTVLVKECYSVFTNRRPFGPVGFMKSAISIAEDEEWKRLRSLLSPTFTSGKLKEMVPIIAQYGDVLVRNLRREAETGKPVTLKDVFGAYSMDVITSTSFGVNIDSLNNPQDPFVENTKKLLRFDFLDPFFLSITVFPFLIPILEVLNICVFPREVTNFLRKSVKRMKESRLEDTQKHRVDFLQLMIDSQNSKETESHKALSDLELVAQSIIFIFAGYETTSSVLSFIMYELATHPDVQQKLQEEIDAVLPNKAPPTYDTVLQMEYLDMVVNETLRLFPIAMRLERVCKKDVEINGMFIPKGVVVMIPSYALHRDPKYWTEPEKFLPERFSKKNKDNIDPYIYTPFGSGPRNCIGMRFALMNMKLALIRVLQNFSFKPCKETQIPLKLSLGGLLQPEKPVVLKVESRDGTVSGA

[4] = Metabolic stability in rat liver microsomes assessed as compound metabolism incubated for 30 mins in presence of NADPH by LC-MS/MS analysis; format: ADME, Microsome; settings: read-out: Drug metabolism
[5] = AUC in Wistar rat at 10 ml/kg, po or 2 ml/kg, iv measured upto 24 hrs by LC-MS/MS analysis; format: ADME, organism-based; settings: in vivo
[6] = Half life in Wistar rat at 10 ml/kg, po or 2 ml/kg, iv measured upto 24 hrs by LC-MS/MS analysis; format: ADME, organism-based; settings: in vivo
[7] = Cmax in Wistar rat at 10 ml/kg, po or 2 ml/kg, iv measured upto 24 hrs by LC-MS/MS analysis; format: ADME, organism-based; settings: in vivo
Rattus norvegicus [8] = test: Antidepressant activity in Wistar rat assessed as immobility time at 3.0 mg/kg, po measured for 5 mins by forced swim test (reference value: 241.9 to 281.6 sec); format: functional
[9] = Ratio of drug level in brain to plasma in Wistar rat at 10 ml/kg, po or 2 ml/kg, iv measured upto 24 hrs by LC-MS/MS analysis; format: ADME, organism-based; settings: brain and plasma, read-out: BPR
Rattus norvegicus [10] = test: Antidepressant activity in Wistar rat assessed as immobility time at 10.0 mg/kg, po measured for 5 mins by forced swim test (reference value: 241.9 to 281.6 sec); format: functional
[11] = Oral bioavailability in Wistar rat at 10 ml/kg measured upto 24 hrs by LC-MS/MS analysis; format: ADME, organism-based; settings: in vivo

Structure (SMILES): CN1[C@H](COc2ccc(Cl)nc2)C[C@H]2C[C@H]21
- pKi [1]: 8.47

Structure (SMILES): Clc1cc(OC[C@@H]2C[C@H]3C[C@H]3N2)c(Cl)nc1Cl
- pKi [1]: 6.58

Structure (SMILES): c1ccc2ncc(OC[C@@H]3C[C@H]4C[C@H]4N3)cc2c1
- pKi [1]: 6.22

Structure (SMILES): Cl.Clc1ccc(OC[C@@H]2CC[C@H]3C[C@H]3N2)cn1
- pKi [1]: 7.69
- metabolised at 0.5 h [2]: 98.9%
- pKi [3]: < 5.00
- pIC50 (Cytochrome P450 2D6): 4.10
- pIC50 (Cytochrome P450 3A4): < 4.35
- metabolised at 0.5 h [4]: 72.8%
- AUC at 24 h [5]: 4480 ng·h/mL
- half-life [6]: 0.68 h
- Cmax [7]: 3340 ng/mL
- Time (Rattus norvegicus [8]): 238.6 s
- Kp at 24 h [9]: 0.16
- Time (Rattus norvegicus [10]): 264.9 s
- bioavailability [11]: 48%

Structure (SMILES): c1cc(OC[C@@H]2C[C@H]3C[C@H]3N2)ccn1
- pKi [1]: < 5.00

Structure (SMILES): Cl.Clc1cncc(OC[C@@H]2C[C@H]3C[C@H]3N2)c1
- pKi [1]: 9.72
- metabolised at 0.5 h [2]: 40.7%
- pKi [3]: < 5.00
- pIC50 (Cytochrome P450 2D6): < 4.35
- pIC50 (Cytochrome P450 3A4): < 4.35
- metabolised at 0.5 h [4]: 40.4%
- AUC at 24 h [5]: 1190 ng·h/mL
- half-life [6]: 1.07 h
- Cmax [7]: 949 ng/mL
- Time (Rattus norvegicus [8]): 249.9 s
- Kp at 24 h [9]: 3.79
- Time (Rattus norvegicus [10]): 241.7 s
- bioavailability [11]: 50%

Structure (SMILES): Clc1ccc(OC[C@H]2C[C@H]3C[C@H]3N2)cn1
- pKi [1]: 6.48
- metabolised at 0.5 h [2]: 18.3%
- pKi [3]: 6.28
- pIC50 (Cytochrome P450 2D6): 4.49
- pIC50 (Cytochrome P450 3A4): < 4.35
- metabolised at 0.5 h [4]: 69.6%

Structure (SMILES): C[C@@]12C[C@@H]1CC(COc1ccc(Cl)nc1)N2 (some centres undefined)
- pKi [1]: 5.16

Structure (SMILES): Clc1cncc(OC[C@@H]2C[C@@H]3C[C@@H]3N2)c1
- pKi [1]: 6.49

Structure (SMILES): Cc1ncccc1OC[C@@H]1C[C@H]2C[C@H]2N1C
- pKi [1]: 6.64

Structure (SMILES): Clc1cncc(OC[C@]23C[C@H]2CCN3)c1
- pKi [1]: 6.08

Structure (SMILES): Clc1ncccc1OC[C@@H]1C[C@@H]2C[C@@H]2N1
- pKi [1]: 9.00

Structure (SMILES): Cl.Clc1ccc(OC[C@@H]2C[C@@H]3C[C@@H]3N2)cn1
- pKi [1]: 8.19
- metabolised at 0.5 h [2]: 13.6%
- pKi [3]: 5.99
- pIC50 (Cytochrome P450 2D6): < 4.35
- pIC50 (Cytochrome P450 3A4): < 4.35
- metabolised at 0.5 h [4]: 36%
- AUC at 24 h [5]: 1620 ng·h/mL
- half-life [6]: 2.73 h
- Cmax [7]: 638 ng/mL
- Kp at 24 h [9]: 2.14
- bioavailability [11]: 66%

Structure (SMILES): c1nnc(-c2cncc(OC[C@@H]3C[C@H]4C[C@H]4N3)c2)o1
- pKi [1]: 6.88

Structure (SMILES): CN1[C@H](COc2cccnc2F)C[C@H]2C[C@H]21
- pKi [1]: 7.50

Structure (SMILES): Clc1ccc(OC[C@H]2NC[C@@H]3C[C@@H]32)cn1
- pKi [1]: 9.70

Structure (SMILES): Clc1ncccc1OC[C@@H]1CC[C@H]2C[C@H]2N1
- pKi [1]: < 5.00

Structure (SMILES): C=Cc1nnc(-c2cncc(OC[C@@H]3C[C@H]4C[C@H]4N3)c2)o1
- pKi [1]: 5.58

Structure (SMILES): OCCCCC#Cc1cncc(OC[C@@H]2C[C@H]3C[C@H]3N2)c1
- pKi [1]: 8.57

Structure (SMILES): Fc1ccc(OC[C@@H]2C[C@@H]3C[C@@H]3N2)cn1
- pKi [1]: 8.92

Structure (SMILES): FC(F)(F)c1ccc(OC[C@@H]2C[C@H]3C[C@H]3N2)cn1
- pKi [1]: 6.11

Structure (SMILES): C[C@@]12C[C@@H]1CC(COc1cccnc1Cl)N2 (some centres undefined)
- pKi [1]: < 5.00

Structure (SMILES): CN1[C@H](COc2ccc(F)nc2)C[C@H]2C[C@H]21
- pKi [1]: 8.96

Structure (SMILES): Cc1ncccc1OC[C@@H]1C[C@H]2C[C@H]2N1.Cl
- pKi [1]: < 5.00
- Time (Rattus norvegicus [8]): 204.8 s
- Time (Rattus norvegicus [10]): 198.8 s

Structure (SMILES): c1cnc(OC[C@@H]2C[C@H]3C[C@H]3N2)cn1
- pKi [1]: < 5.00

Structure (SMILES): Clc1ccc(OC[C@]23C[C@H]2CCN3)cn1
- pKi [1]: 6.47

Structure (SMILES): Fc1ncccc1OC[C@@H]1C[C@H]2C[C@H]2N1
- pKi [1]: 7.76

Structure (SMILES): C[C@@]12C[C@@H]1CC(COc1cncc(Cl)c1)N2 (some centres undefined)
- pKi [1]: 6.24

Structure (SMILES): CN1[C@H](COc2cncc(Br)c2)C[C@H]2C[C@H]21
- pKi [1]: 8.38

Structure (SMILES): c1cncc(N2CCC3(CCCN3)C2)c1 (centres undefined) [TC-2216]
- pKi [1]: 7.73
- pKi [3]: < 5.00
- Time (Rattus norvegicus [8]): 249.1 s
- Time (Rattus norvegicus [10]): 183.9 s

Structure (SMILES): Cc1ccc(OC[C@@H]2C[C@H]3C[C@H]3N2C)cn1
- pKi [1]: 7.70

Structure (SMILES): Cc1ccc(OC[C@@H]2C[C@@H]3C[C@@H]3N2)cn1
- pKi [1]: 8.86

Structure (SMILES): CN1[C@H](COc2cncc(Cl)c2)C[C@H]2C[C@H]21
- pKi [1]: 9.43

Structure (SMILES): Brc1cncc(OC[C@@H]2C[C@@H]3C[C@@H]3N2)c1
- pKi [1]: 8.54

Structure (SMILES): Cl.c1cncc(OC[C@@H]2C[C@@H]3C[C@@H]3N2)c1
- pKi [1]: 5.87
- metabolised at 0.5 h [2]: 2.6%
- pKi [3]: 6.25
- pIC50 (Cytochrome P450 2D6): 4.52
- pIC50 (Cytochrome P450 3A4): 4.50
- metabolised at 0.5 h [4]: 3.9%
- AUC at 24 h [5]: 2710 ng·h/mL
- half-life [6]: 1.08 h
- Cmax [7]: 1500 ng/mL
- Kp at 24 h [9]: 3.07
- bioavailability [11]: 87%

Structure (SMILES): Cc1nnc(-c2cncc(OC[C@@H]3C[C@H]4C[C@H]4N3)c2)o1
- pKi [1]: 6.39

Structure (SMILES): Clc1cc(OC[C@@H]2C[C@H]3C[C@H]3N2)cnc1Cl
- pKi [1]: 6.83

Structure (SMILES): Clc1cncc(OCC[C@@H]2C[C@H]3C[C@H]3N2)c1
- pKi [1]: 6.40

Structure (SMILES): Cc1ccc(OC[C@@H]2C[C@H]3C[C@H]3N2)cn1
- pKi [1]: 7.58

Structure (SMILES): Clc1ccc(OCC[C@@H]2C[C@H]3C[C@H]3N2)cn1
- pKi [1]: 6.49

Structure (SMILES): Cl.c1cncc(OC[C@@H]2CC[C@H]3C[C@H]3N2)c1
- pKi [1]: 7.94
- metabolised at 0.5 h [2]: 53.1%
- pKi [3]: 7.16
- pIC50 (Cytochrome P450 2D6): < 4.35
- pIC50 (Cytochrome P450 3A4): < 4.35
- metabolised at 0.5 h [4]: 17%
- half-life [6]: 0.01 h
- Cmax [7]: 665 ng/mL
- Kp at 24 h [9]: 0.32

Structure (SMILES): Clc1cncc(OC[C@H]2NC[C@@H]3C[C@@H]32)c1
- pKi [1]: 9.70
- metabolised at 0.5 h [2]: 6.04%
- pKi [3]: 8.09
- pIC50 (Cytochrome P450 2D6): < 4.35
- pIC50 (Cytochrome P450 3A4): < 4.35
- metabolised at 0.5 h [4]: 12.1%

Structure (SMILES): Brc1cncc(OC[C@@H]2C[C@H]3C[C@H]3N2)c1
- pKi [1]: 8.19

Structure (SMILES): CN1[C@H](COc2cccnc2)C[C@H]2C[C@H]21
- pKi [1]: 8.26

Structure (SMILES): Clc1ccc(OC[C@@H]2C[C@H]3C[C@H]3N2)nn1
- pKi [1]: 5.32

Structure (SMILES): CC(=O)N1[C@H](COc2ccc(Cl)nc2)C[C@H]2C[C@H]21
- pKi [1]: < 5.00

Structure (SMILES): Clc1cncc(OC[C@@H]2CC[C@H]3C[C@H]3N2)c1
- pKi [1]: 7.50

Structure (SMILES): COc1ccc(OC[C@@H]2C[C@@H]3C[C@@H]3N2)cn1
- pKi [1]: 8.33

Structure (SMILES): COc1ccc(OC[C@@H]2C[C@H]3C[C@H]3N2)cn1
- pKi [1]: < 5.00

Structure (SMILES): c1ccc(OC[C@@H]2C[C@H]3C[C@H]3N2)nc1
- pKi [1]: < 5.00

Structure (SMILES): C[C@@]12C[C@@H]1CC(COc1cccnc1)N2 (some centres undefined)
- pKi [1]: 8.44

Structure (SMILES): c1cncc(OC[C@]23C[C@H]2CCN3)c1
- pKi [1]: 6.62

Structure (SMILES): Clc1nccnc1OC[C@@H]1C[C@H]2C[C@H]2N1
- pKi [1]: 5.29

Structure (SMILES): Brc1ccc(OC[C@@H]2C[C@H]3C[C@H]3N2)cn1
- pKi [1]: 7.33

Structure (SMILES): CN1[C@H](COc2cccnc2Cl)C[C@H]2C[C@H]21
- pKi [1]: 7.55

Structure (SMILES): Cc1ncccc1OC[C@@H]1CCCN1 [POZANICLINE]
- pKi [3]: < 5.00

Structure (SMILES): c1cncc(OC[C@H]2NC[C@@H]3C[C@@H]32)c1
- pKi [1]: 9.85
- metabolised at 0.5 h [2]: 6.7%
- pKi [3]: 7.58
- pIC50 (Cytochrome P450 2D6): < 4.35
- pIC50 (Cytochrome P450 3A4): 4.68
- metabolised at 0.5 h [4]: 6.2%
